How the values were obtained:
[1] = tested on: C. elegans jgIs25 (EGFR T790M-L858R); assay: Multivulva (Muv) formation in C. elegans with EGFR double mutation; format: in vivo
Text: In non-small cell lung cancer patients with EGFR (epidermal growth factor receptor) exon21 mutation (L858R), the therapeutic effect of EGFR-TKI (tyrosine kinase inhibitor) is excellent. However, tolerance develops quickly, one mechanism of which is because the second mutation (L858R, T790M) occurs in EGFR. C. elegans with EGFR double mutation (L858R, T790M) causes cell proliferation (multivulva formation). It was observed whether cell proliferation could be inhibited upon IHT treatment. This is an in vivo system that can predict the therapeutic effect of lung cancer resistant to EGFR-TKIs, by introducing genetic mutations observed in cells showing drug resistance to the EGFR-TKI (tyrosine kinase inhibitor) used as a therapeutic agent for human lung cancer.
After IHT treatment to C. elegans jgIs25, observations were performed using a differential interference contrast (DIC) microscope. 0.5% DMSO was used as a vehicle control. […] 0.1% DMSO as a control or 5 μM IHT was. Data are expressed as mean±standard error, **P<0.01 and ***P<0.001.

[2] = tested on: NCI-H460 tumorspheroids; assay: Western blot of apoptosis-related proteins; format: cell-based
Procedure: (§1) The cells were dissolved in a RIPA (radio immunoprecipitation) buffer containing protease inhibitors, phosphatase inhibitors, PMSF (phenylmethylsulfonyl fluoride), and DTT (dithiothreitol), and protein concentration was quantified with a micro BCA test kit. Equal amounts of protein was added to a polyacrylamide gel containing SDS (Sodium dodecyl sulphate), isolated by electrophoresis, and transferred to a polyvinylidene difluoride (PVDF) membrane. The membrane was blocked with a solution containing 5%-TBST (tris-buffered saline with Tween20) milk, and the primary antibody was exposed at 4 degrees Celsius for 16 hours.
(§2) The antibodies used were as follows: β-actin (sc-477778), p53 (sc-126), Bax (sc-526) (Santacruz Biotechnology); cleaved caspase-7 (Asp198) (#9491), cleaved poly (ADP-ribose) polymerase (PARP) (#9541), X chromosome-linked inhibitor of apoptosis (XIAP) (#2045), Survivin (#2808), p21 (#2947), phospho-Akt (#9275), cleaved caspase-9 (#9501), caspase-9 (#9502), caspas-8 (#9746), phospho-Stat3 (#9145) (Cell Signaling Technology).
(§3) Subsequently, the membrane was washed with TBSP, and then exposed to the secondary antibody conjugated with HRP (horseradish peroxidase, Santacruz Biotechnology) at room temperature for 1 hour, washed, and film-developed using an ECL (enhanced chemiluminescence, Amersham) kit to observe the bands.
(§4) In the induction of apoptosis by the intrinsic pathway, a decisive process is the release of cytochrome C inside mitochondria to the outside due to changes in mitochondrial membrane potential. After 48 hours of treatment to measure mitochondrial membrane potential changes, tumorspheroids were isolated into single cells and stained with JC-1, and flow cytometry was used to measure the percentage of mitochondria-damaged cells. The percentage of cells in which JC-lexists as a single entity, meaning a decrease in mitochondrial membrane potential, was indicated. In addition, A549 tumorspheroids transfected with negative control (siNC) or siNR4A1 and NCI-H460 tumorspheroids were treated with IHT for 48 hours, and then subjected to Western blot analysis for apoptosis-related protein changes, and the results are shown in FIG. 6.

[3] = tested on: A549 tumorspheroids; assay: Western blot of apoptosis-related proteins; format: cell-based
Procedure: as §1, §2, §3, §4

[4] = tested on: NCI-H460 tumorspheroids; assay: Apoptosis by Cell Death detection ELISA kit; format: cell-based; conditions: 72 hours
Procedure: (§5) An experiment was designed to confirm whether cell death induced in 3D tumorspheroids was apoptosis. Induction of apoptosis was examined after treating NCI-H460 tumorspheroids with IHT or treating A549 tumorspheroids with IHT along with siNC or siNR4A1. NCI-H460 and siRNA-treated A549 tumorspheroids were treated with IHT at the indicated concentrations for 72 hours, and then apoptosis was measured using a Cell Death detection ELISA kit. Further, after IHT treatment for 72 hours, single cells were isolated from tumorspheroids, stained with Annexin V and 7-AAD, and analyzed by a flow cytometry. Apoptotic cell population was represented as the ratio of cells in the early apoptotic processes that are annexin V-positive/7-AAD-negative, and terminal apoptotic process positive for both annexin V/7-AAD (FIG. 5). All data are expressed as mean±standard deviation. *p<0.05 indicates a significant difference compared to a control group, and **p<0.01 indicates a significant difference compared to a control group.

[5] = tested on: A549 tumorspheroids; assay: Apoptosis by Cell Death detection ELISA kit; format: cell-based; conditions: 72 hours
Procedure: as §5

[6] = tested on: NCI-H460 tumorspheroids; assay: 3D tumorspheroid growth (CellTiter-Glo 3D); format: cell-based
Procedure: (§6) A549 and NCI-H460 cell lines were placed in 96-well ultra-low attachment (ULA) plates at 7,000 and 1500 cells/well, and centrifuged at 1000 rpm for 10 minutes. Then, they were cultured in Roswell Park Memorial Institute (RPMI) 1640 medium mixed with 0.5% Matrigel, 10% Fetal Bovine Serum (FBS), and 1× penicillin-streptomycin for 2 days. They were treated with IHT, and the degree of cell growth was measured with CellTiter-Glo 3D (Promega, Madison, WI, USA) reagent after 72 hours, and 2D cultured cells were exposed to IHT at the indicated concentration for 48 hours, and then the cell growth was measured with CellTiter-Glo reagent. The average effective dose ED50 of IHT was determined by analyzing the dose-response curve with GraphPad Prism, and the results are shown in FIG. 2. The scale bar was 100 μm, and all data were expressed as mean±standard deviation.
(§7) After IHT was treated onto the 3D tumorspheroid of NCI-H460, or siNR4A1 and IHT were treated in combination on the 3D tumorspheroid of A549, the growth inhibition and cell death induction of tumorspheroids were observed. Negative control (siNC) or siNR4AT-transfected A549 and non-transfected NCI-H460 tumorspheroids were treated with IHT at each concentration, and after 48 and 72 hours, the cell growth was measured using CellTiter-Glo 3D cell viability assay kit (Promega). A549 cells were transfected with […] siRNA using Lipofectamine 2000 (Invitrogen), and siNR4A1 of SEQ ID NO: 1 (5′-GAGCUAUUCCAUGCCUACG-3′) and SEQ ID NO: 2 (5′-GGAUACUGGAUACACCCGU-3′) were mixed and used.

[7] = tested on: A549 tumorspheroids; assay: 3D tumorspheroid growth (CellTiter-Glo 3D); format: cell-based
Procedure: as §6, §7

[8] = tested on: NCI-H460 cell line; assay: 2D culture cell growth (CellTiter-Glo); format: cell-based; conditions: Homo sapiens; 2D culture NCI-H460, 48 hours; read-out: ED50, cell proliferation
Procedure: as §6

[9] = tested on: A549 cell line; assay: 2D culture cell growth (CellTiter-Glo); format: cell-based; conditions: Homo sapiens; 2D culture A549, 48 hours; read-out: ED50, cell proliferation
Procedure: as §6

[10] = tested on: A549 tumorspheroids; assay: LIVE/DEAD cell death staining of tumorspheroids; format: cell-based; conditions: 72 hours
Procedure: as §7
(§8) After the IHT was treated with NCI-H460 and A549 tumorspheroids for 72 hours, the cell death was observed using LIVE/DEAD Viability/Cytotoxicity Kit (Thermo Scientific). Live cells were stained with green fluorescence-labeled calcein-AM, dead cells were stained with red fluorescence-labeled ethidium homodimer-1 (EthD-1), and images were taken at 100× magnification using the Operetta High Content Screening (HCS) System.

[11] = tested on: A549 tumorspheroids; assay: Combined treatment of cisplatin and IHT, tumorspheroid cell growth; format: cell-based
Procedure: A549 tumorspheroids were grown for 3 days, then subjected to the combined treatment of cisplatin and IHT at the indicated concentrations.

[12] = tested on: p21 protein; assay: Western blot for p21 protein in 2D-cultured NCI-H460; format: cell-based; conditions: NCI-H460 2D, 48 hours, low concentrations below the ED50
Procedure: NCI-H460 cell line was cultured in 2D, treated with IHT at the indicated concentration for 48 hours, and then Western blots were performed to measure changes in p21 protein.
as §1
as §2, with “Technology). […]” for “Technology).”

[13] = tested on: A549 xenograft tumors; assay: A549 xenograft tumor growth; format: in vivo; conditions: athymic nude mice, intratumoral IHT 20 μg/kg (500 ng) twice a week with siNR4A1 once a week, 4 weeks
Procedure: Further, A549 cells (5×10^6) were inoculated into the dorsal side of athymic nude mice, and when the tumor size reached 100-150 mm^3, siRNA (50 pmoles) and IHT (500 ng) were intratumorally administered once a week and twice a week, respectively, for 4 weeks. The tumor size was monitored twice a week, and tumor volume was calculated by the following Equation 3. […] V(mm^3)=length×width×width/2 [Equation 3]

[14] = tested on: A549 tumorspheroids; assay: Annexin V / 7-AAD flow cytometry; format: cell-based; conditions: 72 hours
Procedure: as §5
Further, using the phenomenon that annexin V was exposed to the outside of the cell membrane in the early stage of apoptosis, cells were stained with annexin V, stained with 7-Amino-Actinomycin D (7-AAD) penetrating into dead cells, and analyzed with a flow cytometry, thus showing apoptosis and cell death.

[15] = tested on: NCI-H460 tumorspheroids; assay: LIVE/DEAD cell death staining of tumorspheroids; format: cell-based; conditions: NCI-H460 tumorspheroids, 1,3,5 uM IHT, 72 hours
Procedure: as §8

[16] = tested on: NCI-H460 tumorspheroids; assay: Mitochondrial membrane potential (JC-1, flow cytometry); format: cell-based; conditions: 3 uM IHT, 48 hours
Procedure: as §4

[17] = tested on: A549 tumorspheroids; assay: as above; format: cell-based; conditions: IHT 1 uM and siNR4A1 simultaneously, 48 hours
Procedure: as §4

[18] = A549 tumorspheroids with inhibition of NR4A1 expression (siNR4A1), IHT 1 uM

SMILES: COC(=O)[C@@H](O)[C@](O)(CCC(C)C)C(=O)O[C@@H]1C(OC)=C[C@]23CCCN2CCc2cc4c(cc2C13)OCO4 (stereo partly shown) [IHT, isoharringtonine]
- multivulva formation ([1]; C. elegans jgIs25, high concentrations of IHT): multivulva formation was significantly inhibited
- multivulva formation ([1]; C. elegans jgIs25, low IHT concentration (5 μM) with sinhr-6 (nhr-6 RNAi)): multivulva formation was significantly inhibited
- multivulva formation ([1]; C. elegans jgIs25, low concentration (5 uM) IHT): multivulva formation was not inhibited
- Bcl-2 and Mcl-1 protein ([2]; 48 hours): induces the reduction of Bcl-2 and Mcl-1
- Survivin and XIAP protein ([2]; 48 hours): induces the decrease of Survivin and XIAP
- p53 protein ([2]; 48 hours): induces an increase in p53
- phospho-Akt ([2]; 48 hours): reduction of phospho-Akt
- cleavage of caspase-9 ([2]; IHT 48 hours): induced the cleavage of caspoase-9
- cleavage of caspase-9 ([3]; IHT+siNR4A1, 48 hours): induced the cleavage of caspoase-9
- Mcl-1 and XIAP protein ([3]; both IHT and siNR4A1, 48 hours): induced a reduction of Mcl-1 and XIAP
- phospho-Akt ([3]; both IHT and siNR4A1, 48 hours): reduction of phospho-Akt
- apoptosis (DNA fragments, ELISA) [4]: increased from 1 uM in a dose-dependent manner
- apoptosis (DNA fragments, ELISA) ([5]; IHT alone): apoptosis was not induced
- apoptosis (DNA fragments, ELISA) ([5]; simultaneous treatment with siNR4A1, IHT 1 uM): sharply increased apoptosis
- EC50 ([6]; Homo sapiens, 3D tumorspheroid of NCI-H460, 72 hours, read-out: average effective amount (ED50), tumorspheroid growth): 0.143 ± 0.04 µM
- growth inhibition of tumorspheroids ([6]; NCI-H460 tumorspheroids, 1,3,5 uM IHT, 48 and 72 hours): effectively induced at all concentrations
- growth inhibition of tumorspheroids [7, 18]: rapid growth-inhibitory effect
- growth inhibition of tumorspheroids ([7]; A549 tumorspheroids, IHT alone (siNC), 48 and 72 hours): did not have a significant growth-inhibitory effect
- EC50 ([7]; Homo sapiens, A549 3D tumorspheroid, 72 hours, ED50 'predicted'): 9.6 ± 1.12 µM
- EC50 [8]: 0.094 ± 0.02 µM
- EC50 [9]: 0.481 ± 0.05 µM
- cell death of tumorspheroids [10, 18]: sharply induced cell death
- cell death of tumorspheroids ([10]; A549 tumorspheroids, IHT alone): did not induce cell death
- cell growth inhibition ([11]; A549 tumorspheroids, 10 μM IHT in combination with 10 μM cisplatin, 3 days): stronger inhibition of cell growth
- cell growth inhibition ([11]; A549 tumorspheroids, 10 μM IHT, 3 days): very effectively inhibited
- inhibition at 1 µM ([11]; Homo sapiens, A549, 72 h, read-out: cell growth inhibition): ~48%
- change in p21 protein [12]: increased p21
- xenograft tumor suppression (tumor volume) [13]: tumor suppressive effects were observed
- apoptosis (annexin V/7-AAD) ([14]; IHT alone): did not induce apoptosis
- apoptosis (annexin V/7-AAD) ([14]; simultaneous treatment with siNR4A1, IHT 1 μM): sharply increased apoptosis
- cell death of tumorspheroids [15]: effectively induced at all concentrations
- mitochondrial membrane potential [16]: changes in mitochondrial membrane potential were induced
- mitochondrial membrane potential [17]: induced a decrease in mitochondrial membrane potential

SMILES: N.N.[Cl][Pt][Cl] [cisplatin, reference compound]
- inhibition of tumorspheroid growth ([11]; A549 tumorspheroids, 30 μM cisplatin alone, 3 days): significant but minute inhibition of growth
